Test results as given in patent US20210284638A1 (Saint Louis University, priority 2018, published 2021).
Structures can show the parent of a compound that is named as a salt.

Columns and labels:
Format in all cases: binding
[1] = molecular target: T1, Recombinant human integrin αVβ8 (Homo sapiens, UniProt P06756+P26012); test: Solid Phase Receptor Assay for αVβ8 function; conditions: plate-bound human LAP; read-out: αVβ8 SPRA IC50
T1 construct: purchased R&D Systems 4135-AV
Method: F. Solid Phase Receptor Assay (SFRA) for αVβ8 Function
Wells were washed 3 times with 150 μL TBS+ and then 150 μL of blocking buffer (TBS+ with 1% bovine serum albumin, Sigma A7906) was added. The plate was incubated for 1 hr at 37° C. and then washed 3× with TBS+. […] Compounds were diluted to 20 μM and 1 μL was added to each well of the plate according to a standard template with each sample repeated in triplicate. After incubation for two hours at room temperature, the plate was washed 3× with 150 μL of TBS+. To each well, 50 μL of biotinylated anti-αV antibody (R&D Systems, BAF1219) at 1 μg/mL in TBS+/0.1% BSA were added and the plate was covered and incubated for 1 hr at room temperature. After washing the plate 3× with 150 μL of TBS+ buffer, 50 μL of streptavidin-conjugated horseradish peroxidase (R&D Systems, DY998) diluted in TBS+ blocking buffer were added to the wells and the plate incubated for 20 min at room temperature. The plate was washed 3× with TBS+ followed by 50 μL of TMB substrate (Sigma T4444) added to each well in the dark and the plate incubated for 10 min at room temperature. 25 μL of 1.0 M phosphoric acid was added as a stop solution and the plates were read at 450 nm using a Spectramax plate reader.

[2] = molecular target: T2, Recombinant human integrin α5β1 (Homo sapiens, UniProt P05556+P08648); test: Solid Phase Receptor Assay (SPRA) for α5β1 function; conditions: plate-bound human fibronectin
T2 construct: purchased R&D Systems 3230-A5
T2 sequence (P08648 42-995 limits assumed): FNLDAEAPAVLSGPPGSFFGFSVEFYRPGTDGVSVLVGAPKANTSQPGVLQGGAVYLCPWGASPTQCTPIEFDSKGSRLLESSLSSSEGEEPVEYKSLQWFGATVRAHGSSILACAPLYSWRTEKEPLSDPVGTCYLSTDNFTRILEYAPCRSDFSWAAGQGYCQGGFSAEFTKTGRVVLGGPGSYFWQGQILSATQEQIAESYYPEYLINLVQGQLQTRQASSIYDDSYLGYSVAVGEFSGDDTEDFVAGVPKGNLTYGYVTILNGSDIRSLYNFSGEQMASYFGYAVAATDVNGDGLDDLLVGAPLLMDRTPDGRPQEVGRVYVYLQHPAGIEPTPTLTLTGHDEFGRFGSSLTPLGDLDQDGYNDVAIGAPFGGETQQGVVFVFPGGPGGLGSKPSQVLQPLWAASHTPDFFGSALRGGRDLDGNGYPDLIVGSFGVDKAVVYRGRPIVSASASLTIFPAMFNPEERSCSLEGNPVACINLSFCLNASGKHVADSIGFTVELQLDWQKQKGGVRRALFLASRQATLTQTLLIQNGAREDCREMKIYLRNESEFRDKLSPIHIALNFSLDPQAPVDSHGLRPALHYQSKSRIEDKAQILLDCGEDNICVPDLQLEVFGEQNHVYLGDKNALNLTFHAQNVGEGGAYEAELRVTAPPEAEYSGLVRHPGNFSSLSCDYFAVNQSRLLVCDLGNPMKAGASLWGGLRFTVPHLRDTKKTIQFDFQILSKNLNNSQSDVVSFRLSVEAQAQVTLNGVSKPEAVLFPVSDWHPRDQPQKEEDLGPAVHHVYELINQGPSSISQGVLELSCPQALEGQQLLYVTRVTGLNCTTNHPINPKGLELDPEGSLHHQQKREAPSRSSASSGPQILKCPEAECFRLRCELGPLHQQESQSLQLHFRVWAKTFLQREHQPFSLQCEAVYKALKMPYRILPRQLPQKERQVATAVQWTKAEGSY
T2 sequence (P05556 21-728 limits assumed): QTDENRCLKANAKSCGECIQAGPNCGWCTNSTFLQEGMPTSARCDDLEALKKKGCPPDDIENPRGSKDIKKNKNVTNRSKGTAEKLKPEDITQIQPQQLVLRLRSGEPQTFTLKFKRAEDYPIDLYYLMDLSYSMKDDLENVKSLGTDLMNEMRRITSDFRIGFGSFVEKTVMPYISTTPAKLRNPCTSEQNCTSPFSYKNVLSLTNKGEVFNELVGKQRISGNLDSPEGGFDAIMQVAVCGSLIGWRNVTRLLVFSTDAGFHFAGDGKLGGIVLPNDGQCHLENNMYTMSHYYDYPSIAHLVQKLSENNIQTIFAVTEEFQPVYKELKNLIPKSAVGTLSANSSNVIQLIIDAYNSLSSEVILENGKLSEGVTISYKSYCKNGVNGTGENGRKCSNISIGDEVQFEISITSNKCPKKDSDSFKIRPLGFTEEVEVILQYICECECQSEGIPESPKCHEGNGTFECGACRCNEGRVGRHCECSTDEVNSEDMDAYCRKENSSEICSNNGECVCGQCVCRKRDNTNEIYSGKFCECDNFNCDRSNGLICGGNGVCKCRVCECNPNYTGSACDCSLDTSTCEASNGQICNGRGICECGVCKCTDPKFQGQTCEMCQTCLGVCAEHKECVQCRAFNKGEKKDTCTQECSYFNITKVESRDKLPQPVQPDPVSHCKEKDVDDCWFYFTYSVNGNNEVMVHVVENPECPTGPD
Method: A. Solid Phase Receptor Assay (SPRA) for α5β1 Function
Wells were washed 3 times with 150 μL TBS+ and then 150 μL of blocking buffer (TBS+ with 1% bovine serum albumin, Sigma A7906) was added. The plate was incubated for 1 hr at 37° C. and then washed 3× with TBS+ buffer. […] Compounds were diluted to 20 μM and then 1 μL was added to each well of the plate according to a standard template with each sample repeated in triplicate. After incubation for two hours at room temperature, the plate was washed 3× with 150 μL of TBS+ buffer. To each well, 50 μL of biotinylated anti-α5 antibody (R&D Systems, BAF1864) at 0.5 μg/mL in TBS+/0.1% BSA were added and the plate covered and incubated for 1 hr at room temperature. After washing the plate 3× with 150 μL of TBS+ buffer, 50 μL of streptavidin-conjugated horseradish peroxidase (R&D Systems, DY998) diluted in TBS+ blocking buffer were added to the wells and the plate incubated for 20 min at room temperature. The plate was washed 3× with TBS+ buffer followed by 50 μL of room temperature TMB substrate (Sigma, T4444) added to each well in the dark and the plate incubated for 25 min at room temperature. 25 μL of 1.0 M phosphoric acid was added as a stop solution and the plates were read at 450 nm using a Spectramax plate reader.

[3] = molecular target: T3, Recombinant human integrin αVβ3 (Homo sapiens, UniProt P05106+P06756); test: Solid Phase Receptor Assay for αVβ3 function; conditions: plate-bound human vitronectin; read-out: αVβ3 SPRA IC50
T3 construct: purchased R&D Systems 3050-AV
T3 sequence (P06756 31-992 limits assumed): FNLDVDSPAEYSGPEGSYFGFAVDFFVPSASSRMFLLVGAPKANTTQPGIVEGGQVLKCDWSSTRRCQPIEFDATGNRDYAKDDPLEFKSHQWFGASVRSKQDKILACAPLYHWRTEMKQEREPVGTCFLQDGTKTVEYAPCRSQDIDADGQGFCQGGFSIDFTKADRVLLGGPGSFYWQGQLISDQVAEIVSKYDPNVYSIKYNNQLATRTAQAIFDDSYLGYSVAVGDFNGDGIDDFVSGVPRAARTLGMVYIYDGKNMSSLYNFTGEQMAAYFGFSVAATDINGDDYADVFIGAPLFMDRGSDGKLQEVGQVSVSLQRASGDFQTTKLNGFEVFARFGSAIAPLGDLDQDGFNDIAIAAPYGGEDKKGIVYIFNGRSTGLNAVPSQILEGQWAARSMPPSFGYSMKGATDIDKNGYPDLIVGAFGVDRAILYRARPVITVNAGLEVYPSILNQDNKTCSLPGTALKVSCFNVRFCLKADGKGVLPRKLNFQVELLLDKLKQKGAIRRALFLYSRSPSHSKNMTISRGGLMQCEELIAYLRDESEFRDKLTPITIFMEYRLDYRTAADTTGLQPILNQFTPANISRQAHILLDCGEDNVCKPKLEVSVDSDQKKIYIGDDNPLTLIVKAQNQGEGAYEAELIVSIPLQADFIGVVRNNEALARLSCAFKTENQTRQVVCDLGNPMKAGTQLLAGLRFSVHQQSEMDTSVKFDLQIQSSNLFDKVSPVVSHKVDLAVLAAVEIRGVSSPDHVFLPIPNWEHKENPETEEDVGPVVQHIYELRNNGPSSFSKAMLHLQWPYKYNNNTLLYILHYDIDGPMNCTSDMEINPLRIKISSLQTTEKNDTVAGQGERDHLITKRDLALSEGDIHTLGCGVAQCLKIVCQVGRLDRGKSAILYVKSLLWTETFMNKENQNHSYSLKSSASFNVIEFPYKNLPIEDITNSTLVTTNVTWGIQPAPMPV
T3 sequence (P05106 27-718 limits assumed): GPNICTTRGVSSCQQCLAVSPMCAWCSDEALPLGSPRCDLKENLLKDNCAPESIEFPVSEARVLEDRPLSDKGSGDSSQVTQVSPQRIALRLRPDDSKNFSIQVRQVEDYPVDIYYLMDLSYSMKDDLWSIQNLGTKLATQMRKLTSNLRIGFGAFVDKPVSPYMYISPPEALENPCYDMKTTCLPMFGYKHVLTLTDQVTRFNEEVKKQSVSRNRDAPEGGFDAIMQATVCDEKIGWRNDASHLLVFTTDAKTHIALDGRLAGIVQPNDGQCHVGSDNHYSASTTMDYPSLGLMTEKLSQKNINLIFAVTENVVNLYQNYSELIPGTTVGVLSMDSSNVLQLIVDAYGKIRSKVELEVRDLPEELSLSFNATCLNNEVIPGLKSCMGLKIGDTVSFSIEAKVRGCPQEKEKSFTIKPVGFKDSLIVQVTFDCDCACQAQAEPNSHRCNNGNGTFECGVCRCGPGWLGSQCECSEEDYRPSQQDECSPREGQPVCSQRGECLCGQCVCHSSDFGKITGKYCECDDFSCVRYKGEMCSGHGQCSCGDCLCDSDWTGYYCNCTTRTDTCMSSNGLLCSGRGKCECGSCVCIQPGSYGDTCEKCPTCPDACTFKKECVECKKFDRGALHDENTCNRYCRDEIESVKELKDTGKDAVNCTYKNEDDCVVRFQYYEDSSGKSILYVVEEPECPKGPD
Method: C. […] Wells were washed 3 times with 150 μL TBS+ and then 150 μL of blocking buffer (TBS+ with 1% bovine serum albumin, Sigma A7906) was added. The plate was incubated for 1 hr at 37° C. and then washed 3× with TBS+ buffer. […] Compounds were diluted to 20 μM and then 1 μL was added to each well of the plate according to a standard template with each sample repeated in triplicate. After incubation for two hours at room temperature, the plate was washed 3× with 150 μL of TBS+ buffer. To each well, 50 μL of biotinylated anti-αV antibody (R&D Systems, BAF1219) at 0.5 μg/mL in TBS+/0.1% BSA were added and the plate covered and incubated for 1 hr at room temperature. After washing the plate 3× with 150 μL of TBS+ buffer, 50 μL of streptavidin-conjugated horseradish peroxidase (R&D Systems, DY998) diluted in TBS+ blocking buffer were added to the wells and the plate incubated for 20 min at room temperature. The plate was washed 3× with TBS+ buffer followed by 50 μL of TMB substrate (Sigma, T4444) added to each well in the dark and the plate was incubated for 25 min at room temperature. 25 μL of 1.0 M phosphoric acid was added as a stop solution and the plates were read at 450 nm using a Spectramax plate reader.

[4] = molecular target: T4, Recombinant human integrin αVβ5 (Homo sapiens, UniProt P06756+P18084); test: Solid Phase Receptor Assay (SPRA) for αVβ5 function; conditions: plate-bound human vitronectin
T4 construct: purchased R&D Systems 2528-AV
T4 sequence (P06756 31-992 limits assumed): as the sequence (P06756 31-992 limits assumed) above
T4 sequence (P18084 24-719 limits assumed): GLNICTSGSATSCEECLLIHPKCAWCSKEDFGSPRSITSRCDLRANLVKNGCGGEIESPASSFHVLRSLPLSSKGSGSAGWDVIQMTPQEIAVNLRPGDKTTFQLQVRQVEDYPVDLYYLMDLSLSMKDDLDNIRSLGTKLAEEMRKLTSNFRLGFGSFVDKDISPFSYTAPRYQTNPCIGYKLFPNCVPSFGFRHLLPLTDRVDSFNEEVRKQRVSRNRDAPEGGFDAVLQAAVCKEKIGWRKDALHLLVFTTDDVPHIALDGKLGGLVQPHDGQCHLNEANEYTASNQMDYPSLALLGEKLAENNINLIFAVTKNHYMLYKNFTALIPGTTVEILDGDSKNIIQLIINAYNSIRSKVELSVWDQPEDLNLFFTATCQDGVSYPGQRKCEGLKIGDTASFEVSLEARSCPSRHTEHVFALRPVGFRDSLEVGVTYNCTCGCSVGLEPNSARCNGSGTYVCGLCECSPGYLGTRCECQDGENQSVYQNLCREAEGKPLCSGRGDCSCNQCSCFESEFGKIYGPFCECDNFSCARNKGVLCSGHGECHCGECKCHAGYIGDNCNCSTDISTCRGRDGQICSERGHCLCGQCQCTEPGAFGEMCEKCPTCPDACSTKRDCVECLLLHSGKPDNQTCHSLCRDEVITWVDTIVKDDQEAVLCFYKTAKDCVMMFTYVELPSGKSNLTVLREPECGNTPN
Method: D. Solid Phase Receptor Assay (SPRA) for αVβ5 Function
Wells were washed 3 times with 150 μL TBS+ and then 150 μL of blocking buffer (TBS+ with 1% bovine serum albumin, Sigma A7906) was added. The plate was incubated for 1 hr at 37° C. and then washed 3× with TBS+ buffer. […] Compounds were diluted to 20 μM and then 1 μL was added to each well of the plate according to a standard template with each sample repeated in triplicate. After incubation for two hours at room temperature, the plate was washed 3× with 150 μL of TBS+ buffer. To each well, 50 μl of biotinylated anti-αV antibody (R&D Systems, BAF1219) at 0.5 μg/mL in TBS+/0.1% BSA at 0.5 μg/mL were added and the plate covered and incubated for 1 hr at room temperature. After washing the plate 3× with 150 μL of TBS+ buffer, 50 μL of streptavidin-conjugated horseradish peroxidase (R&D Systems, DY998) diluted in TBS+ blocking buffer were added to the wells and the plate incubated for 20 min at room temperature. The plate was washed 3× with TBS+ buffer followed by 50 μL of TMB substrate (Sigma T4444) added to each well in the dark and the plate incubated for 5 min at room temperature. 25 μL of 1.0 M phosphoric acid was added as a stop solution and the plates were read at 450 nm using a Spectramax plate reader.

T1 sequence (P06756 31-992 limits assumed): as the sequence (P06756 31-992 limits assumed) above
T1 sequence (P26012 43-684 limits assumed): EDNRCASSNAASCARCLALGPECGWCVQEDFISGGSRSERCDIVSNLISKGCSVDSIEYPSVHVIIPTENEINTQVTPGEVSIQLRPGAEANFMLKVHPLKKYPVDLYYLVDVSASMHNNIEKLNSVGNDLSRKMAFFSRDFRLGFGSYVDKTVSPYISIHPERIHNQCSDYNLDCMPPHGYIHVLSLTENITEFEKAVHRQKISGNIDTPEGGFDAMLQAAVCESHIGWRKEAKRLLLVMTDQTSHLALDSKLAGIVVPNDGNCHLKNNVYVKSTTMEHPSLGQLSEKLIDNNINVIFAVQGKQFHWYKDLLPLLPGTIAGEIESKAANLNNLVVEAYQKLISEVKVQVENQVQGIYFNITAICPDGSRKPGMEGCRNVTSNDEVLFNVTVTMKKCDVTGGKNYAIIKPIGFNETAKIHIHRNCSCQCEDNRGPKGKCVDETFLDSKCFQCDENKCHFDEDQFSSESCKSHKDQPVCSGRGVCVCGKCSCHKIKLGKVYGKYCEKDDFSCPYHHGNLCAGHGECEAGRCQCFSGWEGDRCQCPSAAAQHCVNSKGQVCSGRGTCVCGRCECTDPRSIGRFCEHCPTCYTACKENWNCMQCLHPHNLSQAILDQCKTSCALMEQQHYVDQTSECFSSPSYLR

Row | SMILES | IC50 [1] [nM] | IC50 [2] [nM] | IC50 [3] [nM] | IC50 [4] [nM]
1 | COc1ccc(C2=CCOCC2)cc1C(CC(=O)O)Cc1cc(OCCc2ccc3c(n2)NCCC3)n(C)n1 (stereo not drawn) [Example 42] | 41 | 10 | 58 | 14
2 | COc1ccc(C2CCOCC2)cc1C(CC(=O)O)Cc1cc(OCCc2ccc3c(n2)NCCC3)n(C)n1 (stereo not drawn) [Example 46, 3-(2-methoxy-5-(tetrahydro-2H-pyran-4-yl)phenyl)-4-(1-methyl-5-(2-(5,6,7,8-tetrahydro-1,8-naphthyridin-2-yl)ethoxy)-1H-pyrazol-3-yl)butanoic acid] | 250 | 16 | 310 | 87
3 | Cn1nc(CC(CC(=O)O)c2cc(C(C)(C)C#N)cc(C(C)(C)C#N)c2)cc1OCCc1ccc2c(n1)NCCC2 (stereo not drawn) [Example 41, 3-(3,5-bis(2-cyanopropan-2-yl)phenyl)-4-(1-methyl-5-(2-(5,6,7,8-tetrahydro-1,8-naphthyridin-2-yl)ethoxy)-1H-pyrazol-3-yl)butanoic acid trifluoroacetate] | 1 | 0.3 | 9 | 5
4 | CC(C)(C)c1ccc(C#N)c(C(CC(=O)O)Cc2csc(CCCc3ccc4c(n3)NCCC4)n2)c1 (stereo not drawn) [Example 33, 3-(5-tert-butyl-2-cyano-phenyl)-4-[2-[3-(5,6,7,8-tetrahydro-1,8-naphthyridin-2-yl)propyl]thiazol-4-yl]butanoic acid] | 8 | 0.7 | 38 | 32
5 | COCC1(c2ccc(OC)c([C@H](CC(=O)O)Cc3cc(OCCc4ccc5c(n4)NCCC5)n(C)n3)c2)CCOCC1 [Example 48, (S)-3-(2-methoxy-5-(4-(methoxymethyl)tetrahydro-2H-pyran-4-yl)phenyl)-4-(1-methyl-5-(2-(5,6,7,8-tetrahydro-1,8-naphthyridin-2-yl)ethoxy)-1H-pyrazol-3-yl)butanoic acid] | 540 | 9.7 | 690 | 770
6 | COc1ccc(C(C)(C)C)cc1C(CC(=O)O)Cc1csc(CCCc2ccc3c(n2)NCCC3)n1 (stereo not drawn) [Example 28, 3-(5-(tert-butyl)-2-methoxyphenyl)-4-(2-(3-(5,6,7,8-tetrahydro-1,8-naphthyridin-2-yl)propyl)thiazol-4-yl)butanoic acid] | 31 | 25 | 1500 | 440
7 | COCC1(c2cc(C(CC(=O)O)Cc3cc(OCCc4ccc5c(n4)NCCC5)n(C)n3)cc(C(C)(C)C)c2)CCOCC1 (stereo not drawn) [Example 1, 3-[3-tert-butyl-5-[4-(methoxymethyl)tetrahydropyran-4-yl]phenyl]-4-[1-methyl-5-[2-(5,6,7,8-tetrahydro-1,8-naphthyridin-2-yl)ethoxy]pyrazol-3-yl]butanoic acid] | 27 | 2 | 48 | 44
8 | Cn1nc(CC(CC(=O)O)c2cc3c(c(C(C)(C)C)c2)OCCO3)cc1OCCc1ccc2c(n1)NCCC2 (stereo not drawn) [Example 16, 3-(8-(tert-butyl)-2,3-dihydrobenzo[b][1,4]dioxin-6-yl)-4-(1-methyl −5-(2-(5,6,7,8-tetrahydro-1,8-naphthyridin-2-yl)ethoxy)-1H-pyrazol-3-yl) butanoic acid] | 41 | 18 | 7 | 0.7
9 | Cn1nc(CC(CC(=O)O)c2cc(C(C)(C)C)cc(C(C)(C)C#N)c2)cc1OCCc1ccc2c(n1)NCCC2 (stereo not drawn) [Example 9, 3-[3-tert-butyl-5-(1-cyano-1-methyl-ethyl)phenyl]-4-[1-methyl-5-[2-(5,6,7,8-tetrahydro-1,8-naphthyridin-2-yl)ethoxy]pyrazol-3-yl]butanoic acid] | 8 | 1 | 38 | 32
10 | Cn1nc(CC(CC(=O)O)c2cc3c(c(C(C)(C)C)c2)OCO3)cc1OCCc1ccc2c(n1)NCCC2 (stereo not drawn) [Example 15] | 120 | 28 | 9 | 0.2
11 | COc1ccc(C(CC(=O)O)Cc2cc(OCCc3ccc4c(n3)NCCC4)n(C)n2)cc1F (stereo not drawn) [Example 44, 3-(3-fluoro-4-methoxyphenyl)-4-(1-methyl-5-(2-(5,6,7,8-tetrahydro-1,8-naphthyridin-2-yl)ethoxy)-1H-pyrazol-3-yl)butanoic acid] | 80 | 47 | 2.3 | 0.22
12 | COc1ccc(C2=CCOCC2)cc1C(CC(=O)O)Cc1csc(CCCc2ccc3c(n2)NCCC3)n1 (stereo not drawn) [Example 37, 3-[5-(3,6-dihydro-2H-pyran-4-yl)-2-methoxy-phenyl]-4-[2-[3-(5,6,7,8-tetrahydro-1,8-naphthyridin-2-yl)propyl]thiazol-4-yl]butanoic acid] | 83 | 25 | 230 | 37
13 | COc1c(C(C)(C)C)cc(C(CC(=O)O)Cc2csc(CCCc3ccc4c(n3)NCCC4)n2)cc1C(C)(C)C (stereo not drawn) [Example 29, 3-(3,5-di-tert-butyl-4-methoxyphenyl)-4-(2-(3-(5,6,7,8-tetrahydro-1,8-naphthyridin-2-yl)propyl)thiazol-4-yl)butanoic acid] | 87 | 40 | 1600 | 800
14 | Cc1cc(C)n(-c2cccc(C(CC(=O)O)Cc3csc(CCc4ccc5c(n4)NCCC5)n3)c2)n1 (stereo not drawn) [Example 38, 3-(3-(3,5-dimethyl-1H-pyrazol-1-yl)phenyl)-4-(2-(2-(5,6,7,8-tetrahydro-1,8-naphthyridin-2-yl)ethyl)thiazol-4-yl)butanoic acid] | 2700 | 420 | 9 | 0.7
15 | COc1cc(C(CC(=O)O)Cc2cc(OCCc3ccc4c(n3)NCCC4)n(C)n2)cc(C23CC4CC(CC(C4)C2)C3)c1OCc1ccccc1 (stereo not drawn) [Example 13, 3-[3-(1-adamantyl)-4-benzyloxy-5-methoxy-phenyl]-4-[1-methyl-5-[2-(5,6,7,8-tetrahydro-1,8-naphthyridin-2-yl)ethoxy]pyrazol-3-yl]butanoic acid] | 540 | 210 | 31 | 140
